According to US10183936B2, “Hepatitis B core protein allosteric modulators” (priority 2014, dated 2019):

What was measured:
[1] = system: HBV viral production in AD38 cells; assay: Viral load production in AD38 cells by quantitative PCR of the HBV core sequence in supernatant; assay type: cell-based; conditions: Hepatitis B virus, 144 h; 10 μM compound, 6 days at 37° C., viral load in supernatant compared against DMSO control wells; read-out: AD38 Viral Load (CpAM/DMSO %) at 10 μM
Procedure, shortened: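 AD38 cells seeded at 50,000/well, treated 6 days at 37° C with compound added as 10× solution in 10% DMSO. HBV core sequence in clarified supernatant quantified by TaqMan qPCR against known standards; viral load compared with DMSO control wells.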

[2] = system: AD38 cells; assay: Viability of AD38 cells (Promega CellTiter-Glo) at the end of compound treatment; assay type: cell-based; conditions: 10 μM compound, 6 days, luminescence normalized against DMSO control wells (controls being 100%)
Procedure, shortened: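 AD38 cells seeded at 50,000/well received compound from a 10× solution in 10% DMSO and were incubated 6 days at 37° C. Viability was then read by CellTiter-Glo luminescence in tetracycline-free medium with 2% FBS and 1% DMSO, normalized to DMSO control wells (100%) and reported as percent viability.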

| Structure (SMILES) | activity at 10 µM [1] | AD38 Viability Normalized Result (CPAM/DMSO %) at 10 μM [2] |
| --- | --- | --- |
| O=C(Nc1cccc(-c2ccccc2C(=O)O)c1)c1ccc2c(c1)NC(=O)c1cc(F)ccc1S2 [Compound 1435, 3′-(2-fluoro-11-oxo-10, 11-dihydrodibenzo [b,f] [1,4]thiazepine-8-carboxamido)-[1, 1′-biphenyl]-2-carboxylic acid] | 77% | 99% |
| CN1c2ccc(C(=O)NCCc3cncs3)cc2NC(=O)c2ccccc21 [Compound 1532] | 17% | 112% |
| O=C(NCc1cncs1)c1ccc2c(c1)NC(=O)c1c(F)cccc1S2 [Compound 1541] | 11% | 117% |
| O=C(NCCc1ccc(C(F)(F)F)cc1)c1ccc2c(c1)NC(=O)c1ccccc1S2 [Compound 1186] | 1% | 39% |
| O=C(Nc1cccc(-c2ccccc2)c1)c1ccc2c(c1)NC(=O)c1ccccc1N2Cc1ccccc1 [Compound 1484] | 26% | 100% |
| O=C1Nc2c(cc(F)c(C(=O)NCc3cncs3)c2F)Sc2ccccc21 [Compound 1545] | 59% | 88% |
| CN(C)S(=O)(=O)c1ccc(CCNC(=O)c2ccc3c(c2)NC(=O)c2ccccc2S3(=O)=O)cc1 [Compound 1619] | 12% | 122% |
| O=C(NCCC1CCCCC1)c1ccc2c(c1)NC(=O)c1ccc(Cl)cc1S2 [Compound 1250] | 14% | 113% |
| O=C(NCCc1cccnc1)c1ccc2c(c1)NC(=O)c1ccccc1S2(=O)=O [Compound 1448] | 3% | 85% |
| O=C(NCCC1CCCCC1)c1ccc2c(c1)NC(=O)c1ccccc1S2(=O)=O [Compound 1206, N-(2-cyclohexylethyl)-11-oxo-10, 11-dihydrodibenzo [b,f] [1,4] thiazepine-8-carboxamide 5,5-dioxide] | 10% | 106% |
| O=C(NCC1CCOC1)c1ccc2c(c1)NC(=O)c1ccccc1S2 (stereo not shown) [Compound 1606] | 7% | 104% |
| C[C@@H](O)CNC(=O)c1ccc2c(c1)NC(=O)c1ccccc1S2 [Compound 1221] | 19% | 106% |
| CN(C)S(=O)(=O)c1ccc(CCNC(=O)c2ccc3c(c2)NC(=O)c2cccc(F)c2S3)cc1 [Compound 1488] | 84% | 97% |
| O=C(Nc1ccncc1)c1ccc2c(c1)NC(=O)c1cc(F)ccc1S2 [Compound 1330] | 41% | 109% |
| O=C(NCc1cnc(-c2ccccc2)nc1)c1ccc2c(c1)NC(=O)c1cc(F)ccc1S2 [Compound 1315] | 4% | 103% |
| COc1cc2c(cc1C(=O)NCCC1CCCCC1)NC(=O)c1ccccc1S2 [Compound 1287] | 11% | 96% |
| O=C(Nc1cccc(-c2ccc(O)cc2)c1)c1ccc2c(c1)NC(=O)c1cc(F)ccc1S2 [Compound 1453] | 48% | 97% |
| O=C(NCCN1CCOCC1)c1ccc2c(c1)NC(=O)c1ccccc1S2 [Compound 1175] | 30% | 123% |
| O=C(NCCc1cncs1)c1ccc2c(c1)NC(=O)c1ccccc1N2Cc1ccccc1 [Compound 1511] | 38% | 85% |
| O=C(NCCc1cnco1)c1ccc2c(c1)NC(=O)c1ccccc1S2(=O)=O [Compound 1616] | 5% | 115% |
| CCOc1cccc(CCNC(=O)c2ccc3c(c2)NC(=O)c2ccccc2S3)c1 [Compound 1157] | 1% | 48% |
| CNC(=O)c1ccc2c(c1)Sc1ccc(C(=O)NCCc3ccccc3)cc1NC2=O [Compound 1280, N^3-methyl-11-oxo-N^8-phenethyl-10, 11-dihydrodibenzo [b,f] [1,4] thiazepine-3,8-dicarboxamide] | 74% | 94% |
| O=C(Nc1nncs1)c1ccc2c(c1)NC(=O)c1cc(F)ccc1S2 [Compound 1442] | 65% | 99% |
| CCN1c2ccc(C(=O)NCc3cccnc3)cc2NC(=O)c2ccccc21 [Compound 1550] | 1% | 87% |
| O=C(Nc1ccccn1)c1ccc2c(c1)NC(=O)c1ccccc1S2 [Compound 1230] | 46% | 102% |

| Structure (SMILES) | activity at 10 µM [1] | AD38 Viability Normalized Result (CPAM/DMSO %) at 10 μM [2] |
| --- | --- | --- |
| O=C(NCCc1cccnc1)c1cc2c(cc1F)Sc1ccccc1C(=O)N2 [Compound 1395] | 64% | 79% |
| O=C(Nc1nc2ccccc2s1)c1ccc2c(c1)NC(=O)c1cc(F)ccc1S2 [Compound 1339] | 113% | 70% |
| O=C(NCCC1CCCCC1)c1ccc2c(c1)NC(=O)c1cnccc1S2 [Compound 1257] | 26% | 113% |
| COc1cccc(CNC(=O)c2ccc3c(c2)NC(=O)c2ccccc2S3)c1 [Compound 1160] | 2% | 105% |
| O=C(NCCc1cccnc1)c1ccc2c(c1)NC(=O)c1ccccc1N2Cc1ccccc1 [Compound 1475] | 47% | 107% |
| Cl.O=C(NCC1CCCN1)c1ccc2c(c1)NC(=O)c1ccccc1S2 (stereo not shown) [Compound 1633, 11-oxo-N-(pyrrolidin-2-ylmethyl)-10, 11-dihydrodibenzo [b,f] [1,4] thiazepine-8-carboxamide hydrochloride] | 66% | 124% |
| O=C(NCCC1CCNCC1)c1ccc2c(c1)NC(=O)c1ccccc1S2 [Compound 1244, 11-oxo-N-(2-(piperidin-4-yl)ethyl)-10, 11-dihydrodibenzo [b,f] [1,4] thiazepine-8-carboxamide] | 14% | 103% |
| O=C(NCCc1ccccn1)c1ccc2c(c1)NC(=O)c1cc(F)ccc1S2 [Compound 1310] | 1% | 89% |
| CN1c2ccc(C(=O)NCCc3cncnc3)cc2NC(=O)c2ccccc21 [Compound 1548] | 28% | 85% |
| O=C(NCc1cnco1)c1ccc2c(c1)NC(=O)c1cc(F)ccc1S2 [Compound 1311] | 8% | 95% |
| O=C(NCCc1cncnc1)c1ccc2c(c1)NC(=O)c1ccc(F)cc1S2 [Compound 1362] | 19% | 98% |
| O=C(NCc1cccc(O)c1)c1ccc2c(c1)NC(=O)c1ccccc1S2 [Compound 1202] | 7% | 107% |
| O=C(Nc1ncco1)c1ccc2c(c1)NC(=O)c1cc(F)ccc1S2 [Compound 1353] | 50% | 97% |
| COc1ccccc1CNC(=O)c1ccc2c(c1)NC(=O)c1ccccc1S2 [Compound 1159] | 8% | 92% |
| O=C(NCCc1ccccc1)Nc1ccc2c(c1)NC(=O)c1ccccc1S2 [Compound 1224, 1-(11-oxo-10, 11-dihydrodibenzo [b,f] [1,4]thiazepin-8-yl)-3-phenethylurea] | 3% | 65% |
| O=C(NCCc1ccccn1)c1ccc2c(c1)NC(=O)c1cccc(F)c1S2 [Compound 1383] | 1% | 87% |
| O=C(NCc1ccc(F)cc1)c1ccc2c(c1)NC(=O)c1ccccc1S2 [Compound 1197] | 1% | 88% |
| COCCNC(=O)c1ccc2c(c1)NC(=O)c1ccccc1S2 [Compound 1171] | 49% | 103% |
| O=C1Nc2c(cc(F)c(C(=O)NCCc3cccnc3)c2F)Sc2ccccc21 [Compound 1531] | 53% | 96% |
| O=C(NCCc1cccc(OC(F)(F)F)c1)c1ccc2c(c1)NC(=O)c1ccccc1S2 [Compound 1201] | 1% | 50% |
| O=C(NCCc1cnco1)c1ccc2c(c1)NC(=O)c1cc(F)ccc1S2 [Compound 1417] | 11% | 75% |
| O=C(Nc1ccncc1)c1ccc2c(c1)NC(=O)c1ccccc1S2(=O)=O [Compound 1462] | 35% | 99% |
| O=C(NCCc1ccccn1)c1cc2c(cc1F)Sc1ccccc1C(=O)N2 [Compound 1394] | 55% | 94% |
| Cc1cccc(CNC(=O)c2ccc3c(c2)NC(=O)c2ccccc2S3)c1 [Compound 1163] | 3% | 104% |
| CC(C)c1ncc(CNC(=O)c2ccc3c(c2)NC(=O)c2ccccc2S3)s1 [Compound 1611] | 0% | 130% |
